Values quoted from earlier work as cited in patent US11826321B2, “Cyclobenzaprine treatment for agitation, psychosis and cognitive decline in dementia and neurodegenerative conditions” (TONIX PHARMA HOLDINGS LIMITED, priority 2017, dated 2023).

Experiments:
[1] = IR 5 to 10 mg TID and ER 15 mg BID/QD to 30 mg QD; scale to 3
[2] = IR 5 mg TID, 10 doses over 4 days, healthy elderly 62 to 80 years
[3] = PubMed, NIH Drug Reaction Navigator, Medscape Drug Interaction Checker, Drugs.com
[4] = target: serotonergic-2A (5-HT2A) receptor (Homo sapiens, UniProt P28223)
[5] = target: alpha-adrenergic-1A (α1A) receptor (Homo sapiens, UniProt P35348)
alpha-adrenergic-1A (α1A) receptor, sequence (P35348 whole entry): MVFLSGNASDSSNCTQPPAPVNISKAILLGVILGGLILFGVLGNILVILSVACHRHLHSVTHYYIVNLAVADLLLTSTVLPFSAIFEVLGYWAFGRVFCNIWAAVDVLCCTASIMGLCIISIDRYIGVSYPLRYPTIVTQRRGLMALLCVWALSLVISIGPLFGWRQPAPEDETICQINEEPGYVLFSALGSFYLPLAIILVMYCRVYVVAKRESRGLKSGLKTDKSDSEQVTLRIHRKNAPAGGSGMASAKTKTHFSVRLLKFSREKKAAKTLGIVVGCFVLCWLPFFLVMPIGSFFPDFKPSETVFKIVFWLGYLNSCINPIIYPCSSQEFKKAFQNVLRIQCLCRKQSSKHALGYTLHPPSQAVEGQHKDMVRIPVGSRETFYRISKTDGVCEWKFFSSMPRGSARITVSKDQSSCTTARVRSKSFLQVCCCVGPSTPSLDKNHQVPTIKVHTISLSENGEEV

serotonergic-2A (5-HT2A) receptor, sequence (P28223 whole entry, species assumed): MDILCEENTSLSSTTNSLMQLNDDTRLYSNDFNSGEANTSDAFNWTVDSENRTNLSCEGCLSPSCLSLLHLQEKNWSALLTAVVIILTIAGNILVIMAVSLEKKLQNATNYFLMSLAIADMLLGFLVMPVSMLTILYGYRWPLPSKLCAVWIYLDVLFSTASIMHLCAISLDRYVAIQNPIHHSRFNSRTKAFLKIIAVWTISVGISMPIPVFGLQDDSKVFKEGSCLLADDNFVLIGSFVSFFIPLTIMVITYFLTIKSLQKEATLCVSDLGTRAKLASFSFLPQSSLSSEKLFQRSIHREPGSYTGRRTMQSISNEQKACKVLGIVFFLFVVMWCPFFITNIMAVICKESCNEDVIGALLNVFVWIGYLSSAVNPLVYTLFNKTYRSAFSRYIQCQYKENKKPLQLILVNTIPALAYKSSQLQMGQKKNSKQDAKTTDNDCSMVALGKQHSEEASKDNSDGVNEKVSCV

SMILES: CN(C)CCC=C1c2ccccc2C=Cc2ccccc21 [Cyclobenzaprine, 3-(5H-dibenzola[a,d]cyclohepten-5-ylidene)-N,N-dimethyl-1 propanamine]
- anticholinergic burden scale score [1]: 2
- drowsiness and cognitive test performance [2]: does not appear to cause excessive drowsiness or impair performance on cognitive tasks
- hallucinations reported among patients who took 5 mg TID (5 mg TID): none were reported
- incidence of hallucinations (cyclobenzaprine 10 mg, mostly elderly patients): 0.2%
- reports of drug-drug interactions with donepezil, rivastigmine, galantamine, memantine [3]: did not identify any reports of interactions
- 5-HT2A antagonist potency [4]: potent
- α1A antagonist potency [5]: potent
